# Measurements from patent US20240118268A1, “BIOMARKERS ON CELLULAR ENDOCRINE MODELS FOR ENDOCRINE DISRUPTION ASSESSMENT” (priority 2020, published 2024).
# Like-named read-outs stand apart in the source and are kept apart here.
# Legend:
# JEG-Tox cells [1] = assay: Chromatin condensation (Hoechst 33342) as a hallmark of apoptosis; assay type: cell-based, human; settings: 24 h
# Description: The UV fluorescent probe Hoechst 33342 enters living and apoptotic cells, intercalating into DNA. The fluorescent signal is proportional to chromatin condensation in apoptosis. The cells were incubated with Hoechst 33342 at 10 μg/mL for 30 minutes at room temperature. The fluorescence signal was read (λex=360 nm, λem=460 nm) using a cytofluorometer (Spark).
# JEG-3 cells = assay: Neutral red cell viability of JEG-3 cells with SLS or PFOA in 10% or 2.5% FBS; settings: for living cells: 2.5% FBS, 24 h
# Description: (§1) The choriocarcinoma-derived JEG-3 cell-line (ATCC® HTB-36™, Manassas, VA, USA), was grown as recommended by ATCC: Minimum Essential Medium Eagle's medium supplemented with 10% fetal bovine serum, 2 mM of glutamine, 50 IU/mL of penicillin and 50 IU/mL of streptomycin. Cells were detached using trypsin, counted, and then seeded at 80,000 cells/mL in 96-well microplates (200 μL by well) and Nunc® Lab-Tek® II Chamber Slide™ system for immunostaining.
# (§2) Cells were incubated with sodium lauryl sulfate or perfluorooctanoic acid diluted in culture medium supplemented with either 2.5% or 10% FBS. After 24 hours, cell viability was evaluated using the neutral red assay. Neutral Red solution at 0.4% in water was diluted in culture medium with a ratio of 1:79 to give a final concentration of 50 μg/mL. Neutral Red was distributed in the plates for a 3-hour incubation time at 37° C. The cells were then rinsed with PBS to remove any remaining unincorporated dye. The dye was then released from the cells using a lysis solution (1% acetic acid, 50% ethanol and 49% H2O) and the fluorescence was measured (λex=540 nm, λem=600 nm) using Spark microplate fluorometer (Tecan, Mannedorf, Switzerland).
# [2] = as above; settings: human
# Description: as §1, §2
# caspase-1 = assay: Caspase 1 activity, Caspase-Glo 1 Inflammasome Assay; assay type: cell-based, human; settings: 72 h
# Description: Caspase 1 activity was evaluated using the Caspase-Glo® 1 1 Inflammasome Assay kit. The assay was performed according to the manufacturer's instructions. Luminescence was quantified with a Spark microplate reader.
# Caspase 1 activity was evaluated using the Caspase-Glo®1 Inflammasome Assay kit. The assay was performed according to the manufacturer's instructions. Luminescence was quantified with a Spark microplate reader.
# JEG-Tox cells [3] = assay: Reactive Oxygen Species (ROS) production, H2DCF-DA assay; assay type: cell-based, human; settings: 48 h
# Description: Intracellular ROS were measured using 2′,7′-dichlorodihydro-fluorescein diacetate (H2DCF-DA, Life Technologies), which is hydrolyzed by cell esterases in 2′,7′-dichlorodihydrofluorescein and oxidized by ROS in highly fluorescent 2′,7′-dichlorofluorescein. A 10 μM solution of H2DCF-DA was distributed into wells. After a 20-min incubation period at 37° C., the fluorescence signal was read (λex=485 nm, λem=535 nm) using a Spark microplate reader.
# JEG-Tox cells [4] = assay: Neutral Red cell viability assay on JEG-Tox cells, 72 h; assay type: cell-based, human; settings: 72 h
# Description: (§3) The JEG-3 human trophoblast cell line, derived from a human placental carcinoma, was obtained from the American Type Culture Collection (ATCC HTB-36). Cells were cultured in minimum Essential medium, supplemented with 10% fetal bovine serum (FBS), 1% L-glutamine, 0.5% penicillin and streptomycinin, in 75 cm2 polystyrene flasks. Cell cultures were maintained in a cell culture incubator (37° C., saturated humidity, 5% CO2). When the JEG-3 cells reached subconfluency, they were detached using trypsin-EDTA and counted. The cellular suspension was diluted and seeded either in 96-well microplates at a cellular density of 80,000 cells/mL or in 6-well microplates at 120,000 cells/mL, then kept at 37° C. for 24 h. The cells were incubated with EDCs according to example 1.
# (§4) Cell viability was evaluated using the Neutral Red assay. The Neutral Red solution at 0.4% (m/v in water) was diluted in cell culture medium to obtain a working concentration of 50 μg/mL. […] The cells were then rinsed with PBS and lysed with a solution of acetic acid-ethanol (ethanol 50.6%, water 48.4% and acetic acid 1%). After homogenization, the fluorescence signal was scanned (λexc=540 nm, λem=600 nm) with a Tecan Spark microplate reader (Mannedorf, Switzerland). The cell viability was calculated compared to the control cells (the fluorescence of the control cells as 100% viability).
# [5] = as above; assay type: cell-based, human; settings: human, 100 μM, 72 h, read-out: cell viability
# Description: as §3, §4
# P2X7 receptor = molecular target: T1, P2X7 receptor (Homo sapiens, UniProt Q99572); assay type: cell-based; settings: for endocrine disruptor according to the definition of the European Union: JEG-3 cells in 2.5% serum, by measuring the activity of the P2X7 receptor
# T1 construct: P2X7 receptor is expressed by human placenta and JEG-Tox; endogenous in cells; host or cells: JEG-3 human trophoblast cell line (ATCC HTB-36) cultured in 2.5% FBS (JEG-Tox)
# T1 sequence (Q99572 1-595): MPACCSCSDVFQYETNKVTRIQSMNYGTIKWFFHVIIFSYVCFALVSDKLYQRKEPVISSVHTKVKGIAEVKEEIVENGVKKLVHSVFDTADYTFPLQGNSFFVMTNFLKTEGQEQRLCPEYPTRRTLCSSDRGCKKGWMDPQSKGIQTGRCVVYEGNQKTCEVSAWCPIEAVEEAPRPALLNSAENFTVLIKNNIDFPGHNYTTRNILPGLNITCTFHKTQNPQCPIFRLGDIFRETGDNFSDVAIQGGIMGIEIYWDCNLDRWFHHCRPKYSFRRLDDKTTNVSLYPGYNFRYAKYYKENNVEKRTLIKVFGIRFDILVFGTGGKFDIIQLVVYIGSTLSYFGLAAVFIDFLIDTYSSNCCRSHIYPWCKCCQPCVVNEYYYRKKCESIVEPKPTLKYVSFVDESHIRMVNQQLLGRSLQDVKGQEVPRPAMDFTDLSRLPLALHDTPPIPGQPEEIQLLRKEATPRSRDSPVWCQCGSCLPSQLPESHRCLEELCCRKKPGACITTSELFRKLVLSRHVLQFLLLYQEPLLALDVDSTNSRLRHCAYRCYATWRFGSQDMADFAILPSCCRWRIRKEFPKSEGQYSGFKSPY
# Description: (§5) P2X7 cell death receptor activation was evaluated using the YO-PRO-1® assay (Rat et al. J Biol Methods. 2017 Jan. 20; 4(1):e64). YO-PRO-1® probe only enters into cells after P2X7 receptor activation-induced pore opening, and binds to DNA, emitting fluorescence. A 1 mM YO-PRO-1 stock solution was diluted at 1/500 in PBS just before use and distributed into the wells of the microplate. After a 10-minute incubation time at room temperature, fluorescence signal was read (λex=491 nm, λem=509 nm) with a Spark cytofluorometer.
# as §5, with “al., 2017).” for “al. J Biol Methods. 2017 Jan. 20; 4(1):e64).”, “(λex=485” for “(λex=491”, “λem=531” for “λem=509”
# caspase-9 = assay: Caspase 9 activity, Caspase-Glo 9 Assay; assay type: cell-based, human; settings: 72 h
# Description: Caspase 9 activity was evaluated using the Caspase-Glo® 9 Assay kit. The assay was performed according to the manufacturer's instructions. Luminescence was quantified with a Spark microplate reader.
structure (smiles),measurement,setting,value
"O=C(O)C(F)(F)C(F)(F)C(F)(F)C(F)(F)C(F)(F)C(F)(F)C(F)(F)F [PFOA, perfluorooctanoic acid]",concentration at which chromatin condensation was initiated,JEG-Tox cells [1],20 µg/mL
same,living cells,JEG-3 cells; 80 μg/mL,68%
same,living cells,JEG-3 cells; 120 μg/mL,27%
same,concentration at which cytotoxicity was revealed,JEG-3 cells; diluted in 2.5% FBS,200 µM
same,concentration at which only a slight loss of cell viability was observed,JEG-3 cells; diluted in 10% FBS,300 µM
same,"viability at 24 h, 120 μg/mL",[2],85%
"CC(C)(c1ccc(O)cc1)c1ccc(O)cc1 [bisphenol A, Bisphenol A]",caspase-1 activity compared to control,caspase-1; 50 μM,1.57 fold change
same,effect on caspase-1 activity,caspase-1,activated caspase-1
same,Casp-1 activation (concentration),caspase-1; Table 4 summary,20 µM
same,caspase-1 activity compared to control,caspase-1; highest concentration tested,1.64 fold change
same,effect on ROS production,JEG-Tox cells [3],no effect
same,concentration up to which no loss of cell viability was observed,JEG-Tox cells [4],up to 20 μM
same,cytotoxicity (concentration),"JEG-Tox cells [4]; Table 4 summary, loss of viability >= 30% counted as cytotoxic",No
same,"viability at 72 h, 100 µM",[5]; JEG-Tox cells,18%
same,P2X7 receptor activation compared to control,"P2X7 receptor; 20 μM, 72 h",1.21 fold change
same,P2X7 receptor activation compared to control,"P2X7 receptor; 25 μM, 72 h",1.26 fold change
same,P2X7 receptor activation compared to control,"P2X7 receptor; 50 μM, 72 h",1.34 fold change
same,endocrine disruptor according to the definition of the European Union,P2X7 receptor,is an endocrine disruptor
same,P2X7 receptor activation (in words),"P2X7 receptor; JEG-Tox, 72 h",triggered P2X7 receptor activation
same,P2X7 activation (concentration),"P2X7 receptor; Table 4 summary, 72 h",5 to 20 µM
same,caspase-9 activity compared to control,caspase-9; 50 μM (highest concentration),1.28 fold change
"Oc1ccc(Cc2ccc(O)cc2)cc1 [bisphenol F, Bisphenol F]",caspase-1 activity compared to control,caspase-1; 25 μM,1.60 fold change
same,caspase-1 activity compared to control,caspase-1; 50 μM,2.61 fold change
same,ROS production compared to control,JEG-Tox cells [3]; 25 μM,2.5 fold change
same,ROS production compared to control,JEG-Tox cells [3]; 50 μM,2.5 fold change
same,"viability at 72 h, 100 µM",[5],64%
same,P2X7 receptor activation compared to control,"P2X7 receptor; 25 μM, 72 h",1.24 fold change
same,P2X7 receptor activation compared to control,"P2X7 receptor; 50 μM, 72 h",1.46 fold change
same,endocrine disruptor according to the definition of the European Union,P2X7 receptor,corresponds also to an endocrine disruptor
same,concentration at which chromatin condensation was initiated,JEG-Tox cells [1],5 µg/mL
same,caspase-9 activity compared to control,caspase-9; 25 μM,1.47 fold change
same,caspase-9 activity compared to control,caspase-9; 50 μM (highest concentration),1.67 fold change
